Experiments:
ALDH5A1 [1] = biological target: T1, ALDH5A1 (Homo sapiens, UniProt P51649); assay: DEAB inhibition and IC50 determination
T1 sequence (P51649 48-535): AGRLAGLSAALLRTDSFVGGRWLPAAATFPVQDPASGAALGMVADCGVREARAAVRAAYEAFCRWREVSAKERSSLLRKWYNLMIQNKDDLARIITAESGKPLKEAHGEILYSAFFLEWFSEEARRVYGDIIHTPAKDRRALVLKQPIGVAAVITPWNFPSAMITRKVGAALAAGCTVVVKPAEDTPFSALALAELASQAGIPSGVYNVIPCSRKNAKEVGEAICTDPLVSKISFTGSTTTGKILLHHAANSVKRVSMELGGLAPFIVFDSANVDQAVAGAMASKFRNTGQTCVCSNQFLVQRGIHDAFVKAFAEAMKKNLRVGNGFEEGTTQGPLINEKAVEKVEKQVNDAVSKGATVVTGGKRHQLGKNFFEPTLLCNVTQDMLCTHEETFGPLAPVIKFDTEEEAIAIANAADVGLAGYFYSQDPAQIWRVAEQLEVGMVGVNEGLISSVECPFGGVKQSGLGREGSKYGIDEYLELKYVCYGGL

ALDH4A1 [2] = biological target: T2, ALDH4A1 (Homo sapiens, UniProt P30038); assay: Wavelength scans to monitor DEAB oxidation; type: biochemical; details: DEAB as substrate of ALDH4A1
T2 sequence (P30038 25-563): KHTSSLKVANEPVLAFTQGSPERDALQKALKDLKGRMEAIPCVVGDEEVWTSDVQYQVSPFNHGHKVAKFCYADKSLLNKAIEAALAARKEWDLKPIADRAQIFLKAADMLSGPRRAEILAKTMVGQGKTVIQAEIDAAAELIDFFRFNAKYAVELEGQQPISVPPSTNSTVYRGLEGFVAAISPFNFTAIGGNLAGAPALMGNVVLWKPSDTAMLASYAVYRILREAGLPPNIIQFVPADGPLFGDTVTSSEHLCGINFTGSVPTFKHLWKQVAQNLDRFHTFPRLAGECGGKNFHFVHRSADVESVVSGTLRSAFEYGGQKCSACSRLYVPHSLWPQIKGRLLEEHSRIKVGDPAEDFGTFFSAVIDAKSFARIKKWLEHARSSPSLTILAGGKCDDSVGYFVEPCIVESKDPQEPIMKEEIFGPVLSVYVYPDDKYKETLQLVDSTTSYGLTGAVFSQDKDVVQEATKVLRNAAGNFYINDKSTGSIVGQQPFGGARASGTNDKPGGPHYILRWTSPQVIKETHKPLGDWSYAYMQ

ALDH1B1 [3] = biological target: T3, ALDH1B1 (Homo sapiens, UniProt P30837); assay: DEAB inhibition and IC50 determination; type: biochemical
T3 sequence (P30837 18-517): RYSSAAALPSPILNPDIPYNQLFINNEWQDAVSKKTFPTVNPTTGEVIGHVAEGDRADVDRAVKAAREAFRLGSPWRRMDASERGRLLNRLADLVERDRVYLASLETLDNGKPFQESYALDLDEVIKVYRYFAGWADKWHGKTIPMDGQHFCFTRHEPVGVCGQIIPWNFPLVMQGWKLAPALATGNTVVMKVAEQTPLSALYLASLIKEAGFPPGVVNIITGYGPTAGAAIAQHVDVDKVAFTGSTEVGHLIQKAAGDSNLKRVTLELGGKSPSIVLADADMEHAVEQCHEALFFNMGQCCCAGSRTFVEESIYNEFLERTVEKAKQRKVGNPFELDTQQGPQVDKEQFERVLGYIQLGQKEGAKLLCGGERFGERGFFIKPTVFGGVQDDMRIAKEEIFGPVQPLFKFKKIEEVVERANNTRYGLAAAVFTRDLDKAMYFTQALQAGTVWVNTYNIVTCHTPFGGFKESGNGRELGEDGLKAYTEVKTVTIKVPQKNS

ALDH1A3 [4] = biological target: T4, ALDH1A3 (Homo sapiens, UniProt P47895); assay: Wavelength scans to monitor DEAB oxidation; type: biochemical; details: DEAB as substrate of ALDH1A3
T4 sequence (P47895 1-512): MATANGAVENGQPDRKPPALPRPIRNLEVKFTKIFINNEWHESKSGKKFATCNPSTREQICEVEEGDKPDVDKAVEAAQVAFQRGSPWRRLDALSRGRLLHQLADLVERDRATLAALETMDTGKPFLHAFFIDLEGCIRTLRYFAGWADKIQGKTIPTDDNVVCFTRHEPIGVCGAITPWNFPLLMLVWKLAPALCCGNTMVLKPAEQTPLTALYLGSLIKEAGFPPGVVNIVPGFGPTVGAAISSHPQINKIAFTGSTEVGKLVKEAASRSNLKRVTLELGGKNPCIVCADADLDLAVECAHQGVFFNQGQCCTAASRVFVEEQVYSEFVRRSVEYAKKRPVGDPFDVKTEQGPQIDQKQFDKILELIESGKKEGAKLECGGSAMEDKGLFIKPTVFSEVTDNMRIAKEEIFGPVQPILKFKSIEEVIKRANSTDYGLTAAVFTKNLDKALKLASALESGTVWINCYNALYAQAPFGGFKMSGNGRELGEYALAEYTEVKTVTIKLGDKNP

ALDH1A2 [5] = biological target: T5, ALDH1A2 (Homo sapiens, UniProt O94788); assay: Effect of dialysis on DEAB-induced inhibition; type: biochemical
T5 sequence (O94788 1-518): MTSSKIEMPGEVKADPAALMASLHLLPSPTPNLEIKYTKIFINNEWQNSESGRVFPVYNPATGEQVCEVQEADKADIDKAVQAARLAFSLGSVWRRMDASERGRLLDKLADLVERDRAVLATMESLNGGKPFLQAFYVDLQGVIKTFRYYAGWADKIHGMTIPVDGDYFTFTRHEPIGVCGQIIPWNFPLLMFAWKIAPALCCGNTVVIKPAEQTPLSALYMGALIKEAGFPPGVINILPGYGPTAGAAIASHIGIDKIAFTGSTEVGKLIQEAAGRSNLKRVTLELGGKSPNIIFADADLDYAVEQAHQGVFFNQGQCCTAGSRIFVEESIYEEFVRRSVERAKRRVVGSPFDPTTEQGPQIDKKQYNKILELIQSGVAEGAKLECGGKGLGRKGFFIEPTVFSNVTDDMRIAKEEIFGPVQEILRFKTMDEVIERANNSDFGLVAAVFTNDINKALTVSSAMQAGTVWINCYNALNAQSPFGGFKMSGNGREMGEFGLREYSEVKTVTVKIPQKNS

ALDH1A3 [6] = biological target: T4, ALDH1A3; assay: DEAB inhibition and IC50 determination; type: biochemical
ALDH5A1 [7] = biological target: T1, ALDH5A1; assay: Wavelength scans to monitor DEAB oxidation; type: biochemical; details: DEAB as substrate of ALDH5A1
ALDH1A2 [8] = biological target: T5, ALDH1A2; assay: Kinetics of irreversible; type: biochemical
ALDH1A2 [9] = biological target: T5, ALDH1A2; assay: Wavelength scans to monitor DEAB oxidation; type: biochemical; details: DEAB as substrate of ALDH1A2
ALDH3A1 [10] = biological target: T6, ALDH3A1 (Homo sapiens, UniProt P30838); assay: Wavelength scans to monitor DEAB oxidation; type: biochemical; details: DEAB as substrate of ALDH3A1
T6 sequence (P30838 1-453): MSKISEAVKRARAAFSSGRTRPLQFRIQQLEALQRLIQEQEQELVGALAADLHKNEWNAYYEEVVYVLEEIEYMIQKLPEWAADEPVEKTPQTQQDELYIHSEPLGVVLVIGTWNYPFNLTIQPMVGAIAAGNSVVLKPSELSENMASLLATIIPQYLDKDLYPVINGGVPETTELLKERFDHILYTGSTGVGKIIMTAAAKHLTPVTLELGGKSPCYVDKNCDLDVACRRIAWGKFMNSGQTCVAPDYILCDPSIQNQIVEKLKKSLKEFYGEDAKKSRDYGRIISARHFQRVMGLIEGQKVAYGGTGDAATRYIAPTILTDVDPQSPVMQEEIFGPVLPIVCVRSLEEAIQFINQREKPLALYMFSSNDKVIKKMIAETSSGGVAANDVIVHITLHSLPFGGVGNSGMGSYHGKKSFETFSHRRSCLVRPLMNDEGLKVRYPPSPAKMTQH

ALDH1B1 [11] = biological target: T3, ALDH1B1; assay: Wavelength scans to monitor DEAB oxidation; type: biochemical; details: DEAB as substrate of ALDH1B1
ALDH4A1 [12] = biological target: T2, ALDH4A1; assay: DEAB inhibition and IC50 determination
ALDH1L1 [13] = biological target: T7, ALDH1L1 (Rattus norvegicus, UniProt P28037); assay: Wavelength scans to monitor DEAB oxidation; type: biochemical; details: DEAB as substrate of ALDH1L1
T7 sequence (P28037 417-902 limits assumed): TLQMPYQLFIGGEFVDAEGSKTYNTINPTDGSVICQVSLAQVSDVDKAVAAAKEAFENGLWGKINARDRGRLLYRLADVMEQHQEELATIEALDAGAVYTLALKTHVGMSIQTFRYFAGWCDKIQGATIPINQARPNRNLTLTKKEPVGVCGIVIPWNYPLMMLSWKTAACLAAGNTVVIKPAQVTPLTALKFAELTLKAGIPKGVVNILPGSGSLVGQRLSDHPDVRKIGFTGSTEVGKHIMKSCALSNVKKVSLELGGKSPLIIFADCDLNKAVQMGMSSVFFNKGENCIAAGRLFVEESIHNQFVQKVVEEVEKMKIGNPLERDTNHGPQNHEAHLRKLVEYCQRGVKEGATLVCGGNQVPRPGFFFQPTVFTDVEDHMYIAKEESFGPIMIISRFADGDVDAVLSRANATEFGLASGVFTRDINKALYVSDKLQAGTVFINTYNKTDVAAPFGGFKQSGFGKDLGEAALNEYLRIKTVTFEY

ALDH1A2 [14] = biological target: T5, ALDH1A2; assay: Q-TOF mass spectrometry of enzyme modification by DEAB; type: binding; details: 5.0 μM ALDH1A2, 10 μM DEAB, without NAD+, 1 h
ALDH1L1 [15] = biological target: T7, ALDH1L1; assay: DEAB inhibition and IC50 determination
ALDH1A2 [16] = biological target: T5, ALDH1A2; assay: DEAB inhibition and IC50 determination; type: biochemical
ALDH3A1 [17] = biological target: T6, ALDH3A1; assay: Enzyme kinetics with DEAB as a substrate; details: ALDH3A1 oxidation of the substrate

For `CCN(CC)c1ccc(C=O)cc1` [DEAB], the IC50 (ALDH5A1 [1]) was 13 ± 0.5 µM, the Substrate (ALDH4A1 [2]) was “No” and the IC50 (ALDH1B1 [3]) was 1.2 ± 0.1 µM. For the same compound, the Substrate (ALDH1A3 [4]) was “Yes (slow)”, the activity at 100 µM (ALDH1A2 [5]; 0.5 h, pH 7.5, read-out: activity recovered after dialysis) was 75% and the “recovery of enzymatic activity after dialysis” value (ALDH1A2 [5]; ALDH1A2, pre-incubated with DEAB and NAD+, dialyzed 4 h) was “neither the ALDH2 nor the ALDH1A2 samples regained enzymatic activity”. For the same compound, the IC50 (ALDH1A3 [6]) was 3 ± 0.3 µM, the Substrate (ALDH5A1 [7]) was “Yes (slow)” and the Mode of inhibition (ALDH1A2 [8]) was “Covalent inhibitor”. For the same compound, the Substrate (ALDH1A2 [9]) was “No”, the Substrate (ALDH3A1 [10]) was “Yes” and the Substrate (ALDH1B1 [11]) was “Yes (slow)”. For the same compound, the IC50 (ALDH4A1 [12]) was greater than 20 µM, the Substrate (ALDH1L1 [13]) was “No” and the “fraction of enzyme with DEAB bound” value (ALDH1A2 [14]) was “approximately one-third”. The IC50 (ALDH1L1 [15]) was greater than 20 µM, the IC50 (ALDH1A2 [16]) was 1.2 ± 0.1 µM and the Km (ALDH3A1 [17]) was 5.6 ± 0.7 µM.

Reference: article PMC4414715 (Chemico-biological interactions, 2014)
